Reference: article PMC10383271

Assays:
[1] = target: T1, human serum albumin (HSA) (Homo sapiens, UniProt P02768); assay: Circular dichroism spectroscopy of HSA, secondary structure; set-up: purchased Sigma-Aldrich Chemie GmbH; details: for Change in % α-helix, (1:5) minus (1:0) / reduction in the percentage of α-helix: HSA
Protocol: When the small molecules interact with plasma proteins, changes in circular dichroism spectra are observed. Specific secondary structures such as α-helix or β-sheet have a characteristic band on the spectrum. For the first structure, two negative peaks near 209 and 220 nm are observed, while for the β-sheet, the negative band around 215 nm is present.
Circular dichroism (CD) spectra were measured on the Jasco J-1500 magnetic circular dichroism spectrometer (JASCO International CO., Tokyo, Japan) at room temperature with a 10 mm path length. […] The spectra were measured in the range of 205–250 nm at a scan rate speed of 50 nm/min, with a response time of 1 s. […] They were respectively added into 3 mL of protein solution successive portions of the solutions of the analyzed compounds. The analysis of the obtained results was performed using the CD Multivariate Calibration Creation and CD Multivariate SSE programs (JASCO International CO., Tokyo, Japan). Protein concentrations were converted here for mean residue molar concentrations.

[2] = target: T1, human serum albumin (HSA); assay: Binding site study with HSA, replacement of markers DanG and DanF (fluorescence); set-up: purchased Sigma-Aldrich Chemie GmbH; details: for percentage of the replacement of DanG: drug site 1 marker; for percentage of the replacement of DanF: drug site 2 marker
From the text: HSA, the most important transport protein in our body, has two main binding sites with high affinity to drug binding: drug site 1 in subdomain IIA and drug site 2 in subdomain IIIA [71, 72, 73]. To determine which site the test compounds bind to, the analysis with markers having an affinity for one of the binding sites can be used. Dansylated amino acids turn out to be good for this type of research. In our study, we used dansyl-L-glycine (DanG) and dansyl-L-phenylalanine (DanF) as drug site 1 and drug site 2 markers, respectively. DanG and DanF bound with HSA show the phenomenon of fluorescence at the excitation wave equal to 350 nm. Under these conditions, the fluorescence spectrum is recorded with a band maximum at approximately 510 nm for DanG and 505 nm for DanF, respectively. We conducted a study in which we introduced successive portions of the analyzed compounds to a solution containing equimolar amounts of HSA and each marker. We increased the molar ratio of the reactants from 1:1:0 to 1:1:10. The intensity of fluorescence decreases during the addition of successive portions of the analyzed compounds.
Based on the obtained results, it is possible to calculate the percentage of replacement of DanG or DanF in the complex with albumin by the tested compounds and thus compare the effectiveness of this reaction for all analyzed molecules. (6) percentage of replacement=F0−F/F0·100%
Binding site studies were conducted using fluorescence measurements. Spectra were recorded on Cary Eclipse 500 spectrophotometer (Agilent, Santa Clara, CA, USA) at room temperature with a 10 mm path length. HSA and AAG solutions were prepared in phosphate buffer, giving concentrations equal to 1 × 10^−6 M. The concentrations of dansylated-L-glycine (DanG), dansylated-L-phenylalanine (DanF), and quinaldine red (QR) were 1 × 10^−3 M. The densylated amino acids and QR solutions were prepared in ethanol. For the HSA-dansylated amino acids studies, the excitation wavelength was equal to 350 nm, while for the AAG-QR system, it was 500 nm, respectively. Then, 3 mL of protein was mixed with 3 µL of marker solution, giving a molar ratio of 1 to 1. Next, successive portions of the analyzed compounds were added to the mixtures prepared in this way, obtaining the appropriate protein-to-compound molar ratios, amounting to 1:0, 1:0.5, 1:1, 1:2, 1:3, 1:4, 1:5, and 1:10 for the HSA-densylated amino acids systems, and 1:0, 1:0.5, 1:1, 1:2, 1:3, 1:4, 1:6, 1:8, and 1:10 for the AAG-QR systems.

[3] = target: T2, COX-1 (Ovis aries, UniProt P05979); assay: COX-1 inhibition, Cayman's COX Colorimetric Inhibitor Screening Assay Kit
T2 sequence (P05979 25-600): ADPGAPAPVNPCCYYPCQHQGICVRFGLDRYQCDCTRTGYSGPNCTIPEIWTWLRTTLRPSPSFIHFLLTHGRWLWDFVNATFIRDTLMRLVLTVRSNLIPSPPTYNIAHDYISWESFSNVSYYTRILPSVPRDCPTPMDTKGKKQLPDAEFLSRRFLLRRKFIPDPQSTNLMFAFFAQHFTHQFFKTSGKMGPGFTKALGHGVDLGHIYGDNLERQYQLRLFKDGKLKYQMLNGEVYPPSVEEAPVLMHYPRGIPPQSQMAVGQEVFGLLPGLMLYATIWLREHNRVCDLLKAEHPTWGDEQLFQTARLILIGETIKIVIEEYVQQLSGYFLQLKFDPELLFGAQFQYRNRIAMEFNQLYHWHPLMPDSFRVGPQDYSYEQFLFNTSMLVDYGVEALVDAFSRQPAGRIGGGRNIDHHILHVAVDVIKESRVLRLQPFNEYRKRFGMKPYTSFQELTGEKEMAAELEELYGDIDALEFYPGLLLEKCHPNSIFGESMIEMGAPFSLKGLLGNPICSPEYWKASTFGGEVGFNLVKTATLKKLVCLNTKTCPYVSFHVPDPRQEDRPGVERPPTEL

[4] = HSA:marker:compound molar ratio 1:1:0.5
[5] = HSA:marker:compound molar ratio 1:1:1
[6] = HSA:marker:compound molar ratio 1:1:2
[7] = HSA:marker:compound molar ratio 1:1:3
[8] = HSA:marker:compound molar ratio 1:1:4
[9] = HSA:marker:compound molar ratio 1:1:5
[10] = HSA:marker:compound molar ratio 1:1:10

T1 sequence (P02768 25-609): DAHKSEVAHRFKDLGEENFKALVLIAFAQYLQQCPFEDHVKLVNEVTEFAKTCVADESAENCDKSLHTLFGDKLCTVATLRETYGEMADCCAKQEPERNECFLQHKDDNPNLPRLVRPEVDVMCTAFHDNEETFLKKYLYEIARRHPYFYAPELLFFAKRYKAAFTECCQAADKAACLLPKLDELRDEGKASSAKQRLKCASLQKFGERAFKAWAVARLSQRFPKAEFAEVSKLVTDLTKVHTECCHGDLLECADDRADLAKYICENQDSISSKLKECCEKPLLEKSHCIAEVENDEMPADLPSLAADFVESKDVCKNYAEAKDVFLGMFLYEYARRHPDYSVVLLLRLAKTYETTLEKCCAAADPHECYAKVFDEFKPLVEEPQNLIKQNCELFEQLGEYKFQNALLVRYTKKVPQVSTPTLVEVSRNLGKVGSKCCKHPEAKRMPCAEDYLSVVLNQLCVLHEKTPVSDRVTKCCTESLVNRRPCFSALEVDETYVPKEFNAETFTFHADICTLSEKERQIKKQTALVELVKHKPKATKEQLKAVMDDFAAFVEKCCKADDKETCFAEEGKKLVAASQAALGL

SMILES	Change in % α-helix, (1:5) minus (1:0) [1] [%]	% Other ([1]; HSA:compound molar ratio 1:0.5) [%]	% α-Helix ([1]; HSA:compound molar ratio 1:0.5) [%]	% β-Sheet ([1]; HSA:compound molar ratio 1:0.5) [%]	% β-Turn ([1]; HSA:compound molar ratio 1:0.5) [%]	% Other ([1]; HSA:compound molar ratio 1:1) [%]	% α-Helix ([1]; HSA:compound molar ratio 1:1) [%]	% β-Sheet ([1]; HSA:compound molar ratio 1:1) [%]	% β-Turn ([1]; HSA:compound molar ratio 1:1) [%]	% Other ([1]; HSA:compound molar ratio 1:2) [%]	% α-Helix ([1]; HSA:compound molar ratio 1:2) [%]	% β-Sheet ([1]; HSA:compound molar ratio 1:2) [%]	% β-Turn ([1]; HSA:compound molar ratio 1:2) [%]	% Other ([1]; HSA:compound molar ratio 1:3) [%]	% α-Helix ([1]; HSA:compound molar ratio 1:3) [%]	% β-Sheet ([1]; HSA:compound molar ratio 1:3) [%]	% β-Turn ([1]; HSA:compound molar ratio 1:3) [%]	% Other ([1]; HSA:compound molar ratio 1:5) [%]	% α-Helix ([1]; HSA:compound molar ratio 1:5) [%]	% β-Sheet ([1]; HSA:compound molar ratio 1:5) [%]	also measured
CCCCn1c(C)c2c(OCC(=O)N/N=C/c3ccccc3)nn(C)c(=O)c2c1C [Compound 5a, N-[(Z/E)-benzylideneamino]-2-(6-butyl-3,5,7-trimethyl-4-oxo-pyrrolo[3,4-d]pyridazin-1-yl)oxy-acetamide]	−2.0	20.7	67.3	2.8	9.2	20.9	66.9	2.8	9.3	21.5	66.3	2.7	9.4	21.6	66.2	2.8	9.5	20.3	66.1	4.3	% β-Turn ([1]; HSA:compound molar ratio 1:5): 9.3%; percentage of the replacement of DanG [2, 4]: 0.7%; percentage of the replacement of DanG [2, 5]: 0.7%; percentage of the replacement of DanG [2, 6]: 3.7%; percentage of the replacement of DanG [2, 7]: 5.2%; percentage of the replacement of DanG [2, 8]: 6.7%; percentage of the replacement of DanG [2, 9]: 8.5%; percentage of the replacement of DanG [2, 10]: 15.7%; percentage of the replacement of DanF [2, 4]: 2.3%; percentage of the replacement of DanF [2, 5]: 2.7%; percentage of the replacement of DanF [2, 6]: 5.9%; percentage of the replacement of DanF [2, 7]: 9.0%; percentage of the replacement of DanF [2, 8]: 11.7%; percentage of the replacement of DanF [2, 9]: 14.9%; percentage of the replacement of DanF [2, 10]: 28.8%; melting point: 210 to 212 °C; IC50 [3]: 81.9 ± 2.1 µM
Cc1c2c(OCC(=O)N/N=C/c3ccccc3)nn(C)c(=O)c2c(C)n1-c1ccccc1 [Compound 5b, N-[(Z/E)-benzylideneamino]-2-(3,5,7-trimethyl-4-oxo-6-phenyl-pyrrolo[3,4-d]pyridazin-1-yl)oxy-acetamide]	−2.4	20.9	67.7	2.2	9.3	21.0	67.1	2.5	9.3	20.6	66.9	3.2	9.3	20.5	66.6	3.7	9.3	20.2	66.3	4.3	reduction in the percentage of α-helix [1]: 2.4%; % β-Turn ([1]; HSA:compound molar ratio 1:5): 9.2%; percentage of the replacement of DanG [2, 4]: 0%; percentage of the replacement of DanG [2, 5]: 0.7%; percentage of the replacement of DanG [2, 6]: 5.6%; percentage of the replacement of DanG [2, 7]: 7.7%; percentage of the replacement of DanG [2, 8]: 9.8%; percentage of the replacement of DanG [2, 9]: 11.2%; percentage of the replacement of DanG [2, 10]: 14.0%; percentage of the replacement of DanF [2, 4]: 5.2%; percentage of the replacement of DanF [2, 5]: 9.1%; percentage of the replacement of DanF [2, 6]: 15.7%; percentage of the replacement of DanF [2, 7]: 20.4%; percentage of the replacement of DanF [2, 8]: 23.5%; percentage of the replacement of DanF [2, 9]: 27.4%; percentage of the replacement of DanF [2, 10]: 32.2%; melting point: 274 to 275 °C; IC50 [3]: 90.1 ± 1.8 µM
Cc1c2c(OCC(=O)N/N=C/c3ccccc3)nn(C)c(=O)c2c(C)n1-c1cccc(Cl)c1 [Compound 5c, N-[(Z/E)-benzylideneamino]-2-[6-(3-chlorophenyl)-3,5,7-trimethyl-4-oxo-pyrrolo[3,4-d]pyridazin-1-yl]oxyacetamide]	−1.6	19.6	68.4	2.9	9.1	20.3	68.0	2.5	9.2	19.8	67.8	3.2	9.2	19.7	67.8	3.3	9.1	20.0	67.3	3.5	reduction in the percentage of α-helix [1]: 1.6%; % β-Turn ([1]; HSA:compound molar ratio 1:5): 9.2%; percentage of the replacement of DanG [2, 4]: 2.9%; percentage of the replacement of DanG [2, 5]: 2.9%; percentage of the replacement of DanG [2, 6]: 4.3%; percentage of the replacement of DanG [2, 7]: 5.0%; percentage of the replacement of DanG [2, 8]: 5.7%; percentage of the replacement of DanG [2, 9]: 6.4%; percentage of the replacement of DanG [2, 10]: 11.4%; percentage of the replacement of DanF [2, 4]: 6.2%; percentage of the replacement of DanF [2, 5]: 9.5%; percentage of the replacement of DanF [2, 6]: 13.8%; percentage of the replacement of DanF [2, 7]: 18.1%; percentage of the replacement of DanF [2, 8]: 19.0%; percentage of the replacement of DanF [2, 9]: 21.0%; percentage of the replacement of DanF [2, 10]: 23.3%; melting point: 273 to 275 °C; IC50 [3]: 98.9 ± 1.6 µM
